Series [1] is described as follows: molar heat capacity at constant pressure; xn = mol fraction of the nth substance listed. Conditions: 100 kPa, Liquid, Extra sensitive DSC, x2 = 0.
Series [2] can be described thus: xn = mol fraction of the nth substance listed. To be noted: 100 kPa, Liquid, Vibrating tube method, x2 = 0.
The conditions of series [3]: 100 kPa, Liquid, Vibrating tube method.
A short description of series [4]: molar heat capacity at constant pressure. To be noted: 100 kPa, Liquid, Extra sensitive DSC.

Numbers after ± are expanded uncertainties.

On to `CCCO` [propan-1-ol] + Cc1ccc(C(C)C)cc1, for which the “molar heat capacity at constant pressure” value worked out at 144.5 ± 5.6 J/K/mol in series [1] (298.8 K), 150.9 ± 5.8 J/K/mol in series [1] (308.7 K), 157.4 ± 6.1 J/K/mol in series [1] (318.6 K) and 164.5 ± 6.4 J/K/mol in series [1] (328.5 K). For the same compound, the mass density in series [2] (298.15 K) turned out to be 799.46 ± 0.71 kg/m3; in series [2] (308.15 K), 791.36 ± 0.71 kg/m3; in series [2] (318.15 K), 783.1 ± 0.71 kg/m3; in series [2] (328.15 K), 774.63 ± 0.71 kg/m3.
Regarding `Cc1ccc(C(C)C)cc1` [1-(1-methylethyl)-4-methylbenzene], the mass density was determined as 852.99 ± 0.71 kg/m3 in series [3] (298.15 K), 844.94 ± 0.71 kg/m3 in series [3] (308.15 K), 836.86 ± 0.71 kg/m3 in series [3] (318.15 K) and 828.75 ± 0.71 kg/m3 in series [3] (328.15 K). Besides, the “molar heat capacity at constant pressure” value in series [4] (298.8 K) turned out to be 240.9 ± 9.3 J/K/mol; in series [4] (308.7 K), 244.8 ± 9.5 J/K/mol; in series [4] (318.6 K), 249.4 ± 9.7 J/K/mol; in series [4] (328.5 K) it was 254.6 ± 9.9 J/K/mol.
Turning to `CCCO` [propan-1-ol], the mass density was 799.46 ± 0.71 kg/m3 in series [3] (298.15 K), 791.36 ± 0.71 kg/m3 in series [3] (308.15 K), 783.1 ± 0.71 kg/m3 in series [3] (318.15 K) and 774.63 ± 0.71 kg/m3 in series [3] (328.15 K). In addition, the “molar heat capacity at constant pressure” value in series [4] (298.8 K) turned out to be 144.5 ± 5.6 J/K/mol; in series [4] (308.7 K), 150.9 ± 5.8 J/K/mol; in series [4] (318.6 K), 157.4 ± 6.1 J/K/mol; in series [4] (328.5 K) it was 164.5 ± 6.4 J/K/mol.

In general, mass density refers to the mass of a sample divided by its volume.

Source of the values: the NIST ThermoML archive (doi:10.1016/j.jct.2018.03.021).
